Data published in patent publication US20200131180A1, “POSITIVE ALLOSTERIC MODULATORS OF THE MUSCARINIC ACETYLCHOLINE RECEPTOR M1” (Vanderbilt University, priority 2018, published 2020).

Target: T1, human mAChR M1 (Homo sapiens, UniProt P11229)
T1 sequence (P11229 1-460): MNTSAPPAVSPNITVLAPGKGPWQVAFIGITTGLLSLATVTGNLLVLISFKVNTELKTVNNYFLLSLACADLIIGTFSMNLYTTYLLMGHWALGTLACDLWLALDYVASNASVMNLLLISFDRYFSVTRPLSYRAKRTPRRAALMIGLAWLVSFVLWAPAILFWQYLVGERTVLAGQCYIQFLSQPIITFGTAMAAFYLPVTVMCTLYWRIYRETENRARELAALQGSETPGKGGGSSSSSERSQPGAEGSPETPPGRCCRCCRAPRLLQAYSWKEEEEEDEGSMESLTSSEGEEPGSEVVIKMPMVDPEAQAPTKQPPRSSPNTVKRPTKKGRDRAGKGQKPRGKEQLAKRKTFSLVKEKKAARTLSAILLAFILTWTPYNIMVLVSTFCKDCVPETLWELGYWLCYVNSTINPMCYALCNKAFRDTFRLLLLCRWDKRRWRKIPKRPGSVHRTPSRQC
Assay: mAChR M1 cell-based functional assay (calcium mobilization, PAM activity)
Details: CHO-K1 cells expressing hM1, calcium flux (Fluo-4); for EC50: concentration-dependent increase in the EC20 acetylcholine response; for Emax: potentiation of EC20 acetylcholine response
Summary of the method: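 CHO-K1 cells stably expressing hM1, Fluo-4 AM-loaded; compounds (11-point 1:3 CRC) added, then acetylcholine at EC20 (144 s) and EC80 (230 s). Calcium flux read by FDSS fluorescence ratio; PAM activity is the concentration-dependent increase in the EC20 ACh response, Emax relative to ACh maximum; four-parameter logistic fit.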

| EC50 [µM] | Emax [%] | SMILES |
| --- | --- | --- |
| 0.138 | 59 | Cc1c(Cc2ccc(-c3ccn(C)n3)cc2)cc(C(=O)N[C@H]2CCCC[C@@H]2O)c2nccn12 [compound 51, N-[(1S,2S)-2-hydroxycyclohexyl]-5-methyl-6-[[4-(1-methylpyrazol-3-yl)phenyl]methyl]imidazo[1,2-a]pyridine-8-carboxamide] |
| 0.414 | 70 | Cn1ccc(-c2ccc(Cc3cc(C(=O)N[C@H]4CCCC[C@@H]4O)c4nccn4c3)c(F)c2)n1 [compound 52, 6-[[2-fluoro-4-(1-methylpyrazol-3-yl)phenyl]methyl]-N-[(1S,2S)-2-hydroxycyclohexyl]imidazo[1,2-a]pyridine-8-carboxamide] |
| 0.249 | 66 | Cn1ccc(-c2ccc(Cc3cc(C(=O)N[C@H]4CCOC[C@@H]4O)c4nccn4c3)c(F)c2)n1 [compound 53, 6-[[2-fluoro-4-(1-methylpyrazol-3-yl)phenyl]methyl]-N-[(3R,4S)-3-hydroxytetrahydropyran-4-yl]imidazo[1,2-a]pyridine-8-carboxamide] |
| 0.217 | 70 | Cn1cc(-c2ccc(Cc3cc(C(=O)N[C@H]4CCCC[C@@H]4O)c4nccn4c3)c(F)c2)cn1 [compound 54, 6-[[2-fluoro-4-(1-methylpyrazol-4-yl)phenyl]methyl]-N-[(1S,2S)-2-hydroxycyclohexyl]imidazo[1,2-a]pyridine-8-carboxamide] |
| 0.123 | 65 | Cn1cc(-c2ccc(Cc3cc(C(=O)N[C@H]4CCOC[C@@H]4O)c4nccn4c3)c(F)c2)cn1 [compound 55, 6-[[2-fluoro-4-(1-methylpyrazol-4-yl)phenyl]methyl]-N-[(3R,4S)-3-hydroxytetrahydropyran-4-yl]imidazo[1,2-a]pyridine-8-carboxamide] |
| 0.0322 | 72 | Cc1c(Cc2ccc(-c3cnn(C)c3)cc2F)cc(C(=O)N[C@H]2CCOC[C@@H]2O)c2nccn12 [compound 56, 6-[[2-fluoro-4-(1-methylpyrazol-4-yl)phenyl]methyl]-N-[(3R,4S)-3-hydroxytetrahydropyran-4-yl]-5-methyl-imidazo[1,2-a]pyridine-8-carboxamide] |
| 0.0978 | 68 | Cc1c(Cc2ccc(-c3cnn(C)c3)cc2F)cc(C(=O)N[C@H]2CCCC[C@@H]2O)c2nccn12 [compound 57, 6-[[2-fluoro-4-(1-methylpyrazol-4-yl)phenyl]methyl]-N-[(1S,2S)-2-hydroxycyclohexyl]-5-methyl-imidazo[1,2-a]pyridine-8-carboxamide] |
| 0.991 | 84 | Cn1cc(-c2ccc(Cc3cc(C(=O)N[C@H]4CCC[C@@H]4O)c4nccn4c3)c(F)c2)cn1 [compound 58, 6-[[2-fluoro-4-(1-methylpyrazol-4-yl)phenyl]methyl]-N-[(1S,2S)-2-hydroxycyclopentyl]imidazo[1,2-a]pyridine-8-carboxamide] |
| 1.2 | 79 | Cn1ccc(-c2ccc(Cc3cc(C(=O)N[C@H]4CCC[C@@H]4O)c4nccn4c3)c(F)c2)n1 [compound 59, 6-[[2-fluoro-4-(1-methylpyrazol-3-yl)phenyl]methyl]-N-[(1S,2S)-2-hydroxycyclopentyl]imidazo[1,2-a]pyridine-8-carboxamide] |
| 1.01 | 47 | O=C(N[C@H]1CCCC[C@@H]1O)c1cc(Cc2ccc(-n3cccn3)nc2)cn2ccnc12 [compound 60, N-[(1S,2S)-2-hydroxycyclohexyl]-6-[(6-pyrazol-1-yl-3-pyridyl)methyl]imidazo[1,2-a]pyridine-8-carboxamide] |
| 2.54 | 52 | O=C(N[C@H]1CCCCC[C@@H]1O)c1cc(Cc2ccc(-n3cccn3)nc2)cn2ccnc12 [compound 61, N-[(1S,2S)-2-hydroxycycloheptyl]-6-[(6-pyrazol-1-yl-3-pyridyl)methyl]imidazo[1,2-a]pyridine-8-carboxamide] |
| 0.699 | 89 | Cn1cc(-c2ccc(Cc3cc(C(=O)N[C@H]4CCCC[C@@H]4O)c4nccn4c3)cc2)cn1 [compound 62, N-[(1S,2S)-2-hydroxycyclohexyl]-6-[[4-(1-methylpyrazol-4-yl)phenyl]methyl]imidazo[1,2-a]pyridine-8-carboxamide] |
| 4.82 | 67 | O=C(N[C@H]1CCOC[C@@H]1O)c1cc(Cc2ccc(-n3cccn3)nc2)cn2ccnc12 [compound 63, N-[(3R,4S)-3-hydroxytetrahydropyran-4-yl]-6-[(6-pyrazol-1-yl-3-pyridyl)methyl]imidazo[1,2-a]pyridine-8-carboxamide] |
|  | 46 | O=C(N[C@H]1CCCC[C@@H]1O)c1cc(Cc2ccc(C(F)(F)F)nc2)cn2ccnc12 [compound 64, N-[(1S,2S)-2-hydroxycyclohexyl]-6-[[6-(trifluoromethyl)-3-pyridyl]methyl]imidazo[1,2-a]pyridine-8-carboxamide] |
| 1.36 | 90 | Cn1cc(-c2ccc(Cc3cc(C(=O)N[C@H]4CCOC[C@@H]4O)c4nccn4c3)cc2)cn1 [compound 65, N-[(3R,4S)-3-hydroxytetrahydropyran-4-yl]-6-[[4-(1-methylpyrazol-4-yl)phenyl]methyl]imidazo[1,2-a]pyridine-8-carboxamide] |
|  | 36 | O=C(N[C@H]1CCOC[C@@H]1O)c1cc(Cc2ccc(C(F)(F)F)nc2)cn2ccnc12 [compound 66, N-[(3R,4S)-3-hydroxytetrahydropyran-4-yl]-6-[[6-(trifluoromethyl)-3-pyridyl]methyl]imidazo[1,2-a]pyridine-8-carboxamide] |
|  | 46 | O=C(NC1CCOCC1)c1cc(Cc2ccc(-n3cccn3)cc2)cc2ncnn12 [compound 67, 7-(4-(1H-pyrazol-1-yl)benzyl)-N-(tetrahydro-2H-pyran-4-yl)-[1,2,4]triazolo[1,5-a]pyridine-5-carboxamide] |
